Measurements taken from patent US20250255829A1, “Multifunctional Nanoparticles and Uses in Managing Cancer and Cardiovascular Diseases” (Emory University, priority 2022, published 2025).
One block for each compound: values may come before it.

What was measured:
[1] = tested on: MC38 mouse colon cancer cells; test: Cell proliferation assay; format: cell-based; details: MC-38, read-out: IC50, inhibition of tumor cell proliferation
From the text: Hydrophobic 5β-cholanic acid was conjugated to HA (HACA) to promote self-assembly and assist in loading of hydrophobic drug molecule avasimibe (Ava). HANP/Ava is produced by self-assembling of HACA and avasimibe using a high-pressure homogenizer. Amount of encapsulated avasimibe could reach to 20% (w/w) in HANP/Ava. PD1Y-HANP/Ava was produced by conjugating chemically synthesized PD1Y peptides, mediated by cysteine of PD1Y and maleimide of a short-PEG (12×) linker (FIG. 1B). A ratio of PD1Y to HANP at 17:1 was used. If a high concentration of PD1Y peptides will be needed for improvement of immune checkpoint inhibition, the amount of PD1Y peptides could be further increased up to 200 peptides per HANP.

atherosclerotic plaques = test: Atherosclerotic plaque quantification from H&E stained aorta sections; format: in vivo, Apoe−/− mice; details: for volumes of atherosclerotic plaques: 5 mg/kg study
Experimental: Apoe−/−mice bearing dual diseases received the treatment. After surgical resection of the primary tumors, tumor recurrence and mouse survival were monitored. Mice with tumor recurrence and reached the endpoint were sacrificed. Aorta tissues of the mice were collected at the time point. Serial frozen tissue sections were cut throughout the tissue blocks and stained with H&E. Size of plaques in all arteries of each of the H&E stained tissue sections were measured and total size of the plaques from eight tissue sections of each mouse was compared with the mean of the total plaque area of the no treatment control (100%). For PD1Y-HANP/Ava group that sacrificed at 120 days, an additional no treatment group that was time equivalent was used as a control for the progression of atherosclerosis.
Apoe−/−mice bearing subcutaneous mouse colon tumors were treated with different reagents every 3-4 days for three treatments. Three days following the last treatment, all mice were sacrificed, and aorta arteries were collected. Plaque volumes were quantified from serial H&E tissue sections. During 12 days of treatment, PD1Y-HANP/Avasimibe treated mice had 56% reduction of the total plaque volume in the dual disease mouse model.
Following treatments and by the end of the survival study, the aorta tissues were collected.
In order to enhance the therapeutic effect a combination of PD-L1 targeted delivery of HANP/Avasimibe was tested with uPAR targeted delivery of SN38 (7-Ethyl-10-hydroxycamptothecin), which is an active metabolite of irinotecan that is commonly used for the treatment of colon cancer. […] The effect of ATFmmp14-HANP/SN38 alone or in combination with PD1Y-HANP/Avasimibe at 5 mg/kg of Avasimibe and PD1Y peptide dose/injection was examined in a dual mouse colon cancer and atherosclerosis model. […] Significant reductions of the volumes of atherosclerotic plaques in all treatment groups were detected.

[2] = tested on: s.c. mouse colon tumors (MC38); test: Tumor growth in dual colon cancer and atherosclerosis mouse model; format: in vivo, Apoe−/− mice; details: dual disease model
Experimental: Apoe^−/− mice on a high fat diet carrying s.c. mouse colon tumors (a dual disease model) received five i.v. treatments, once every three days, of 10 mg/kg of avasimibe or equivalent PD1Y-HANP/avasimibe, 10 mg/kg of PD1Y peptide equivalent of PD1Y-HANP or PD1Y. Residual tumors were surgically resected 6 days by surgery after the last therapy. Tumors were weighted.
Apoe−/−mice bearing s.c. MC38 tumors received i.v. treatments of 5 mg/kg of Avasimibe, 5 mg/kg of PD1Y peptide, or […] of SN38 equivalent dose of free drugs or nanoparticle drugs.
MC38 tumor specific IgG antibodies were detected in the mouse serum following PD1Y-HANP/Avasimibe treatment. […]
Apoe^−/− (Apo E gene knock-out) mouse is a commonly used mouse model for atherosclerosis. […] Histological analysis of H&E stained tissue sections using NIR fluorescence microscopy (Keyence) confirmed HANP signals in the plaques. […]
In order to enhance the therapeutic effect a combination of PD-L1 targeted delivery of HANP/Avasimibe was tested with uPAR targeted delivery of SN38 (7-Ethyl-10-hydroxycamptothecin), which is an active metabolite of irinotecan that is commonly used for the treatment of colon cancer. […] Significant reductions of the volumes of atherosclerotic plaques in all treatment groups were detected.

[3] = Intratumoral delivery in colon PDX tumors; format: in vivo; details: colon PDX tumors in NSG mice
From the text: (§1) A uPAR targeted stroma-penetrating ligand (ATFmmp14) was developed containing the amino terminal fragment of uPA fused with the catalytic domain of MMP14. […] ATFmmp14 targets to tumor stromal fibroblasts and macrophages and MMP14 digests extracellular matrixes. […] Without PD1Y or ATFmmp14 conjugation, lower levels of HANP/Avasimibe were present in tumors and atherosclerotic plaques. Thus, uPAR targeted ATF or ATFmmp14 conjugated PD1Y-HANP/Avasimibe enhances delivery efficiency in both plaques and tumors in dual disease mouse model or PDX model.

[4] = Targeted delivery by NIR optical imaging and NIR fluorescence microscopy; format: in vivo, Apoe−/− mice; details: systemic (i.v.) delivery, 48 hrs
Experimental: Apoe^−/− (Apo E gene knock-out) mouse is a commonly used mouse model for atherosclerosis. […] Apoe^−/− mice developed s.c. tumors within 2-3 weeks and extensive atherosclerosis were found in the aortas, especially in the aorta arching. Targeted delivery of PD1Y-HANPs into tumors and atherosclerotic plaques is mediated by targeting PD-L1 (PD1Y) and CD44 (HANP) expressed in both tissues. To determine efficiency of targeted delivery, NIR 830 dye labeled-PD1Y-HANPs were injected i.v. into Apoe^−/− mice bearing mouse colon tumors. […] Histological analysis of H&E stained tissue sections using NIR fluorescence microscopy (Keyence) confirmed HANP signals in the plaques. PD1Y-HANPs were found as clusters in the stromal and tumor areas, with a higher level in necrotic tumor regions.
as §1

- IC50 [1]: 28 µM
Compound: CC(C)c1cc(C(C)C)c(CC(=O)NS(=O)(=O)Oc2c(C(C)C)cccc2C(C)C)c(C(C)C)c1 [avasimibe]
- volumes of atherosclerotic plaques (atherosclerotic plaques): decreased
- amount of the plaques (in words) (atherosclerotic plaques; following treatments and by the end of the survival study): significantly decreased

Compound: NWNRLSPSNQTEKQAAPHHHHCGAISLHPKAKIEE [Unconjugated PD1Y peptide]
- therapeutic efficacy [2]: did not show therapeutic efficacy

Compound: CCc1c2c(nc3ccc(O)cc13)-c1cc3c(c(=O)n1C2)COC(=O)[C@]3(O)CC [SN38, 7-Ethyl-10-hydroxycamptothecin]
- volumes of atherosclerotic plaques (atherosclerotic plaques): decreased

Compound: ATFmmp14: amino terminal fragment of uPA fused with the catalytic domain of MMP14; uPAR targeted stroma-penetrating ligand
- intratumoral delivery [3]: high level of intratumoral delivery
- delivery into tumors and atherosclerotic plaques [4]: high delivery efficiency
